Target: recombinant EZH2-641F complex (EZH2 Y641F/EED/SUZ12/RbAp48/AEBP2) (Homo sapiens (Human), UniProt Q15910, Y641F)
Assay: EZH2 Histone Methyl Transferase Assay (scintillation proximity assay)
Assay type: biochemical
Conditions: 350 nM histone peptide substrate, 500 nM 3H-SAM, 3 hours at room temperature
Excerpt: EZH2 Histone Methyl Transferase Assay
The effectiveness of compounds of the present invention as inhibitors of hitone methyl transferases can be readily tested by assays known to those skilled in the art. For example, in vitro histone methyl transferase assays may be conducted with a relevant purified histone methyl transferase and an appropriate synthetic substrate to determine the inhibitory activity of the compounds. […] Reaction products were captured by binding to strepavidin-conjugated imaging beads. Incorporation of radioactive methyl group into the histone peptide substrate was determined in Leadseeker (GE Healthcare) by means of scintiallation proximity assay. […] Compounds were dissolved at 10 mM in dimethylsulfoxide (DMSO) and evaluated at eleven concentrations. EC50 values were derived by non-linear regression analysis.

Sequence of recombinant EZH2-641F complex (EZH2 Y641F/EED/SUZ12/RbAp48/AEBP2) (Q15910 whole entry Y641F): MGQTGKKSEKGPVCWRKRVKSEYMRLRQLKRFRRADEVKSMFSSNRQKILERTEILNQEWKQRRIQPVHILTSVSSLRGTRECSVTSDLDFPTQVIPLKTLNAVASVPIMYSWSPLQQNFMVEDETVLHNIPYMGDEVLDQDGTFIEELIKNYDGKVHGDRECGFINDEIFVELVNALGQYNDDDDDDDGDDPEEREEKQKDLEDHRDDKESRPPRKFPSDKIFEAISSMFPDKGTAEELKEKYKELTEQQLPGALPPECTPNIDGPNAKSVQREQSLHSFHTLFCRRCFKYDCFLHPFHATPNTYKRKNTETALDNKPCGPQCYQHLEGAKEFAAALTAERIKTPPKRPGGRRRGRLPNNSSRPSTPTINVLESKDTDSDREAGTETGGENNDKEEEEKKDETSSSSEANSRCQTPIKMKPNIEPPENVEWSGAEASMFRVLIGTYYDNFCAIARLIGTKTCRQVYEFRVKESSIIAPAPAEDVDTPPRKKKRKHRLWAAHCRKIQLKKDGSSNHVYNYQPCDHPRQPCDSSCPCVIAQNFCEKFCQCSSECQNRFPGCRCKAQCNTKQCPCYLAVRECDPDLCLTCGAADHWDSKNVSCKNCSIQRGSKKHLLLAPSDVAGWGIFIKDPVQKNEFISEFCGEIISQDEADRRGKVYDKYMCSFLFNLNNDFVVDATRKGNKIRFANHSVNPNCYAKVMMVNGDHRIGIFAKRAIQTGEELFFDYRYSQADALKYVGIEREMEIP
Sequence of recombinant EZH2-641F complex (EZH2 Y641F/EED/SUZ12/RbAp48/AEBP2) (O75530 whole entry partner): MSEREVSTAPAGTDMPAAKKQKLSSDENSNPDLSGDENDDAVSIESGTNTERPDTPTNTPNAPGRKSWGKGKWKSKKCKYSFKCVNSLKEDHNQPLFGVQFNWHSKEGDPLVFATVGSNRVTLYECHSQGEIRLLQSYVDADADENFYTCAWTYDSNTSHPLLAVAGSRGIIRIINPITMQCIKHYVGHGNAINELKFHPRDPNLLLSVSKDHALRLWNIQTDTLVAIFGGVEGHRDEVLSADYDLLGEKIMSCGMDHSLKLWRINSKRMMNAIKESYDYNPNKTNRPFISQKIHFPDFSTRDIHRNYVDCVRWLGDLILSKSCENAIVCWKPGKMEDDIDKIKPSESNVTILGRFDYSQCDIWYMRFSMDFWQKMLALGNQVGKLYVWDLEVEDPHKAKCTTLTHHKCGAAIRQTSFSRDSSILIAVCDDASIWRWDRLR
Sequence of recombinant EZH2-641F complex (EZH2 Y641F/EED/SUZ12/RbAp48/AEBP2) (Q15022 whole entry partner): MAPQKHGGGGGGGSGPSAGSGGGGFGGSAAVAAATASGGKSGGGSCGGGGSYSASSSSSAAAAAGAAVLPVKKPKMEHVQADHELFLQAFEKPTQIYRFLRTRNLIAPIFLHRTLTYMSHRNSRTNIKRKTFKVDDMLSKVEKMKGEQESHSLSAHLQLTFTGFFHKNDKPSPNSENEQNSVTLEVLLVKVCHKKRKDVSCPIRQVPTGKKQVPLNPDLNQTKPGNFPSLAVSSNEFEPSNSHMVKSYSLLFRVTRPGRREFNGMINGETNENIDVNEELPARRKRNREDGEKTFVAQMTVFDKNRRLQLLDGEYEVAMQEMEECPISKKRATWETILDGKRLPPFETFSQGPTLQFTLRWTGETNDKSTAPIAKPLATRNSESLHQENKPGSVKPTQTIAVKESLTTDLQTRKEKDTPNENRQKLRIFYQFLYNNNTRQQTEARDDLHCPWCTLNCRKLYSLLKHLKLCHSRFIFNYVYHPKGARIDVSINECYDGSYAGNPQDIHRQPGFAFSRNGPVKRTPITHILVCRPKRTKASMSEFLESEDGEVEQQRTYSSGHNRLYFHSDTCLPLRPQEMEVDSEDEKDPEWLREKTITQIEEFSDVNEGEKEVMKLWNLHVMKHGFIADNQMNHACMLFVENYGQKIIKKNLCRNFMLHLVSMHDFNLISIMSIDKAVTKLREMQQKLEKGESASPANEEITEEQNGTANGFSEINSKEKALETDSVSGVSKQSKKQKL
Sequence of recombinant EZH2-641F complex (EZH2 Y641F/EED/SUZ12/RbAp48/AEBP2) (Q09028 whole entry partner): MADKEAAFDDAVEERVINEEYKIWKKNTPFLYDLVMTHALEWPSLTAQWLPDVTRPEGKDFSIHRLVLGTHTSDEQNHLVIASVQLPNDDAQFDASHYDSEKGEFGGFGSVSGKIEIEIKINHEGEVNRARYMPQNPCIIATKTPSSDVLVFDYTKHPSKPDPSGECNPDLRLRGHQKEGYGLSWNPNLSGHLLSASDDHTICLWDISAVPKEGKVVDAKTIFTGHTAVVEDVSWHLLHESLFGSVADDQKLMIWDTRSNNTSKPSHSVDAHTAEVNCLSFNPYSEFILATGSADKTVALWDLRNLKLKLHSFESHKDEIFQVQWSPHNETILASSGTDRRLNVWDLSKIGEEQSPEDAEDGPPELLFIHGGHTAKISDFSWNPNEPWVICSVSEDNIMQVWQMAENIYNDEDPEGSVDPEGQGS
Sequence of recombinant EZH2-641F complex (EZH2 Y641F/EED/SUZ12/RbAp48/AEBP2) (Q6ZN18 whole entry partner): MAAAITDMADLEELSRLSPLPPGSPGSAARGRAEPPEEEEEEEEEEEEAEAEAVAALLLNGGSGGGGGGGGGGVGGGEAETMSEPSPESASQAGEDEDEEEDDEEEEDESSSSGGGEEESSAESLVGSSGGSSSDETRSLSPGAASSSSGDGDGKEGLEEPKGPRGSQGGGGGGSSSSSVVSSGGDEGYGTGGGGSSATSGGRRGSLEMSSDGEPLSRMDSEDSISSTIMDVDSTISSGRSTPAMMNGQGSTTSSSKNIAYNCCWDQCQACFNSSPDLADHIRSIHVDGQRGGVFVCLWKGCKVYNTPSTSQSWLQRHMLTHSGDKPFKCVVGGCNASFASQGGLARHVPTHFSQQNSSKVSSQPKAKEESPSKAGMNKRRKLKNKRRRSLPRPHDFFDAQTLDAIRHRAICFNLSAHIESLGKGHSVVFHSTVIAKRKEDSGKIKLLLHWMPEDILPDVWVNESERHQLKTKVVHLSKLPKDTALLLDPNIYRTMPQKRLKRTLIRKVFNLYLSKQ

Question: CCN(c1cc(-c2ccc(CN3CCOCC3)cc2)cc(C(=O)NCC2C(=O)NC(C)c3cccc(F)c32)c1C)C1CCOCC1 (stereo not shown) [Example 5, 5-(Ethyl(tetrahydro-2H-pyran-4-yl)amino)-N-((5-fluoro-1-methyl-3-oxo-1,2,3,4-tetrahydroisoquinolin-4-yl)methyl)-4-methyl-4′-(morpholinomethyl)-[1,1′-biphenyl]-3-carboxamide] was tested. Which EC50 did it give?
Answer: ≤ 5 µM

Question: CCC(C)n1cc(C)c2c(C(=O)NCc3c(=O)[nH]c(C)c4ccccc34)cc(-c3ccc(N4CCNCC4)nc3)cc21 (stereo not shown) [Example 10, 1-(sec-Butyl)-3-methyl-N-((1-methyl-3-oxo-2,3-dihydroisoquinolin-4-yl)methyl)-6-(6-(piperazin-1-yl)pyridin-3-yl)-1H-indole-4-carboxamide] was tested. Which EC50 did it give?
Answer: ≤ 0.5 µM

Question: With CCC(C)n1cc(C)c2c(C(=O)NCc3c(=O)[nH]c(C)c4ccccc34)cc(-c3ccc(N4CCN(C(=O)OC(C)(C)C)CC4)nc3)cc21 (stereo not shown) [Example 9, tert-Butyl 4-(5-(1-(sec-butyl)-3-methyl-4-(((1-methyl-3-oxo-2,3-dihydroisoquinolin-4-yl)methyl)carbamoyl)-1H-indol-6-yl)pyridin-2-yl)piperazine-1-carboxylate] as the molecule, how does the EC50 read?
Answer: ≤ 5 µM

Question: How did the EC50 turn out when Cc1[nH]c(=O)c(CNC(=O)c2cc3c(c(-c4ccc(N5CCNCC5)nc4)c2)OC(C)(C)C3)c2ccccc12 [Example 17, 2,2-Dimethyl-N-((1-methyl-3-oxo-2,3-dihydroisoquinolin-4-yl)methyl)-7-(6-(piperazin-1-yl)pyridin-3-yl)-2,3-dihydrobenzofuran-5-carboxamide] was run?
Answer: ≤ 5 µM

From patent publication US9738630B2, “Inhibitors of lysine methyl transferase” (BRISTOL-MYERS SQUIBB COMPANY, priority 2013, dated 2017)
